Reference: patent US8835478B2, “Treatment for cancer” (Pitney Pharmaceuticals PTY Limited, priority 2005, dated 2014)

Legend:
SKOV-3 cells = test: Sulforhodamine B (SRB) cell proliferation assay, 5-day treatment, SKOV-3; format: cell-based, human; details: 5 days
Description: (§1) Human ovarian carcinoma cell lines OVCAR-3, SKOV-3, 1A9 and 1A9PTX22 were used. OVCAR-3 and SKOV-3 cells were obtained from the American Type Culture Collection (ATCC) and maintained on RPMI medium and McCoy5A medium respectively according to ATCC instructions. 1A9 is a clone of the human ovarian carcinoma cell line, A2780 (Sackett et al., 1997). 1A9PTX22 is a paclitaxel resistant subclone of 1A9 cells, isolated as an individual clone in a single step selection by exposing 1A9 cells to 5 ng/ml paclitaxel in the presence of 5 μg/ml verapamil, a Pgp antagonist (Giannakakou et al., 1997). Cells were maintained in 15 ng/ml paclitaxel and 5 μg/ml verapamil continuously.
(§2) Sulforhodamine B (SRB) colorimetric assay was used to study the effect of albendazole, paclitaxel or their combination on tumour cell cytotoxicity in vitro.
(§3) Cells were harvested from exponential phase cultures by trypsinization, counted and plated in 96-well plates. Optimal seeding densities for each cell line were determined to ensure exponential growth during a 5-day assay. Seeding densities were 5000, 1000, 400 and 3500 cells per well for OVCAR-3, SKOV-3, 1A9 and 1A9PTX22 cells, respectively. […] The plates were left to dry at room temperature and bound protein stain was solubilized with 100 μl 10 mM un-buffered Tris base [tris(hydroxymethyl)aminomethane)] before reading the optical density (OD) at 570 nm. […]

1A9PTX22 cells [1] = test: Sulforhodamine B (SRB) cell proliferation assay, 5-day treatment, 1A9PTX22 (paclitaxel resistant); format: cell-based, human; details: for effect on cell proliferation: 1A9PTX22
Description: as §1, §2
Cells were harvested from exponential phase cultures by trypsinization, counted and plated in 96-well plates. Optimal seeding densities for each cell line were determined to ensure exponential growth during a 5-day assay. Seeding densities were 5000, 1000, 400 and 3500 cells per well for OVCAR-3, SKOV-3, 1A9 and 1A9PTX22 cells, respectively. Cells plated in 96-well tissue culture plates were treated with 100 μl cell culture medium containing various concentrations of albendazole, paclitaxel or a combination of the two. […] Treatment media were replaced on alternate days. At the end of the treatment period (5 days), wells were assayed for cellular protein content. The SRB assay was performed according to the method described by Skehan et al. (1990) and Papazisis at al. (1997), with minor modifications. The culture medium was aspirated prior to fixation of the cells by the addition of 100 μl 10% cold trichloroacetic acid. After an hour incubation at 4° C., cells were washed five times with water. The cells were then stained with 200 μl 0.4% SRB dissolved in 1% acetic acid for at least 15 min and subsequently washed four times with 1% acetic acid to remove unbound stain. The plates were left to dry at room temperature and bound protein stain was solubilized with 100 μl 10 mM un-buffered Tris base [tris(hydroxymethyl)aminomethane)] before reading the optical density (OD) at 570 nm.
For each of the four cell lines used in this study, sensitivity of each line was initially tested by incubating cells with various concentrations of albendazole or paclitaxel for 5 days. The SRB assay was performed at the end of the treatment period to determine cell response to drug treatment.

1A9 cells = test: Sulforhodamine B (SRB) cell proliferation assay, 5-day treatment, 1A9; format: cell-based; details: Homo sapiens
Description: as §1, §2, §3

1A9PTX22 cells [2] = test: SRB assay, 72 hours, cross resistance of 1A9PTX22 compared to parent line 1A9; format: cell-based, human; details: for concentration at which partial resistance of 1A9PTX22 is apparent: 1A9PTX22 vs 1A9, p<0.001; for degree of sensitivity of 1A9PTX22 cells compared to parent cell line 1A9: various concentrations
Description: Cells were harvested from exponential phase cultures by trypsinization, counted and plated in 96-well plates. Optimal seeding densities for each cell line were determined to ensure exponential growth during a 5-day assay. Seeding densities were 5000, 1000, 400 and 3500 cells per well for OVCAR-3, SKOV-3, 1A9 and 1A9PTX22 cells, respectively. Cells plated in 96-well tissue culture plates were treated with 100 μl cell culture medium containing various concentrations of albendazole, paclitaxel or a combination of the two. Both albendazole and paclitaxel were originally made up in absolute ethanol and subsequently diluted with cell culture medium to give the desired drug concentrations with a final ethanol concentration of 1%. Treatment media were replaced on alternate days. At the end of the treatment period (5 days), wells were assayed for cellular protein content. The SRB assay was performed according to the method described by Skehan et al. (1990) and Papazisis at al. (1997), with minor modifications. The culture medium was aspirated prior to fixation of the cells by the addition of 100 μl 10% cold trichloroacetic acid. After an hour incubation at 4° C., cells were washed five times with water. The cells were then stained with 200 μl 0.4% SRB dissolved in 1% acetic acid for at least 15 min and subsequently washed four times with 1% acetic acid to remove unbound stain. The plates were left to dry at room temperature and bound protein stain was solubilized with 100 μl 10 mM un-buffered Tris base [tris(hydroxymethyl)aminomethane)] before reading the optical density (OD) at 570 nm.
1A9 and 1A9PTX22 cells plated in 96-well tissue culture plates were treated with 100 μl cell culture medium containing various concentrations of vincristine and colchicine for 72 hours and SRB assays conducted as described above. As for paclitaxel (see Example 1), both vincristine and colchicine were originally made up in absolute ethanol and subsequently diluted with cell culture medium to give the desired drug concentrations with a final ethanol concentration of 1%. The results are illustrated in FIGS. 5A (vincristine) and 5B (colchicine). […] The partial resistance of 1A9PTX22 is apparent for vincristine at concentrations of 5 nM and above and for colchicine at 100 nM and above (p<0.001).

CCCSc1ccc2nc(NC(=O)OC)[nH]c2c1 [albendazole]
reduction in cell proliferation (SKOV-3 cells; 0.25 μM albendazole alone): 48.4% | sensitivity of 1A9PTX22 compared to the parent line (1A9) (1A9PTX22 cells [1]; 1A9PTX22 vs 1A9, various concentrations, 5 days): even more sensitive | inhibition at 1 µM (1A9PTX22 cells [1]; Homo sapiens, 1A9/ptx-22, 120 h, read-out: inhibitory effect on proliferation): 53% | inhibition at 0.1 µM (1A9 cells; 1A9, 120 h, read-out: inhibition of proliferation): 11.8%

CC[C@]1(O)C[C@H]2CN(CCc3c([nH]c4ccccc34)[C@@](C(=O)OC)(c3cc4c(cc3OC)N(C=O)[C@H]3[C@@](O)(C(=O)OC)[C@H](OC(C)=O)[C@]5(CC)C=CCN6CC[C@]43[C@@H]65)C2)C1 [vincristine]
concentration at which partial resistance of 1A9PTX22 is apparent (1A9PTX22 cells [2]): ≥ 5 nM | degree of sensitivity of 1A9PTX22 cells compared to parent cell line 1A9 (1A9PTX22 cells [2]): significantly reduced

COc1cc2c(c(OC)c1OC)-c1ccc(OC)c(=O)cc1[C@@H](NC(C)=O)CC2 [colchicine]
concentration at which partial resistance of 1A9PTX22 is apparent (1A9PTX22 cells [2]): ≥ 100 nM | degree of sensitivity of 1A9PTX22 cells compared to parent cell line 1A9 (1A9PTX22 cells [2]): significantly reduced

CC(=O)O[C@H]1C(=O)[C@@]2(C)[C@H]([C@H](OC(=O)c3ccccc3)[C@]3(O)C[C@H](OC(=O)[C@H](O)[C@@H](NC(=O)c4ccccc4)c4ccccc4)C(C)=C1C3(C)C)[C@]1(OC(C)=O)CO[C@@H]1C[C@@H]2O [paclitaxel]
inhibition at 10 pM (SKOV-3 cells; Homo sapiens, SK-OV-3, 120 h, 0.01 nM paclitaxel alone): 14.5% | effect on cell proliferation (1A9PTX22 cells [1]; 1.0 nM paclitaxel alone, 5 days): not affected | effect on cell proliferation (1A9PTX22 cells [1]; 5.0 nM paclitaxel alone, 5 days): not affected | increase in paclitaxel concentration required in paclitaxel-resistant cell lines for a response similar to paclitaxel-sensitive cells (1A9PTX22 cells [1]; paclitaxel alone, resistant vs sensitive cells): approximately 50 fold | inhibition at 0.0001 µM (1A9 cells; 120 h, 1A9, 0.1 nM paclitaxel alone, 5 days): 21.8%
